Target: Substance-P receptor (Homo sapiens, UniProt P25103)
Assay: Displacement of [3H]SP from human NK1 receptor expressed in CHO cells

Sequence of Substance-P receptor (P25103 whole entry): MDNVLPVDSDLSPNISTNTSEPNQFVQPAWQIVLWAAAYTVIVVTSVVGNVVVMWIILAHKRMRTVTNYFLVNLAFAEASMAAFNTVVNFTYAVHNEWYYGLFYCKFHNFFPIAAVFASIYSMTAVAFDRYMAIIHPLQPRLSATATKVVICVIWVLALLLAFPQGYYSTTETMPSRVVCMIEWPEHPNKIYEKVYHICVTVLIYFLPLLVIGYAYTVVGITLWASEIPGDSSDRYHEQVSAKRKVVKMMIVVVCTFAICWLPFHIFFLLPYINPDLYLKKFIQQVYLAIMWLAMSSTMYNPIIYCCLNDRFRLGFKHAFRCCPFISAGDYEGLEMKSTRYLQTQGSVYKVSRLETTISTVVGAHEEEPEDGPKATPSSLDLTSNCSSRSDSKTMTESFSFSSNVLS

C[C@@H](O[C@@H]1CN(C2CC(=O)C(=O)C2)C[C@H]1c1ccc(F)cc1)c1cc(C(F)(F)F)cc(C(F)(F)F)c1 [3-((3S,4R)-3-((R)-1-(3,5-bis(trifluoromethyl)phenyl)ethoxy)-4-(4-fluorophenyl)pyrrolidin-1-yl)-5-hydroxycyclopent-2-enone]
IC50: 0.3 nM
